Source: ChEMBL document CHEMBL4680171, “Oxadiazolylthiazoles as novel and selective antifungal agents” (Eur J Med Chem, 2020)
Converted amounts (≈) assume the structure as drawn. The source made the active and inactive calls. The rule behind the calls is not given here.

Tests used:
Cryptococcus neoformans = assay: Antifungal activity against Cryptococcus neoformans NR41300 assessed as reduction in fungal growth incubated for 48 hrs by CLSI based broth microdilution method; assay type: functional
Candida albicans [1] = assay: Antifungal activity against Candida albicans SS5314 assessed as reduction in fungal growth measured after 10 passages by CLSI based broth microdilution method; assay type: functional, organism-based
[2] = Selectivity index, ratio of maximum non-toxic concentration for human Caco-2 cells to MIC for antifungal activity against fluconazole-resistant Candida auris 381; assay type: toxicity; conditions: read-out: Selectivity Index
[Candida] auris [3] = Antifungal activity against fluconazole-resistant Candida auris 384 assessed as reduction in fungal growth incubated for 24 hrs by CLSI based broth microdilution method; assay type: functional; conditions: Candidozyma auris
[4] = Selectivity index, ratio of CC50 for African green monkey Vero cells to MIC for antifungal activity against Candida glabrata ATCC 66032; assay type: toxicity; conditions: read-out: Selectivity Index
[Candida] auris [5] = Antifungal activity against fluconazole-resistant Candida auris 381 assessed as reduction in fungal growth incubated for 24 hrs by CLSI based broth microdilution method; assay type: functional; conditions: Candidozyma auris
[Candida] auris [6] = Antifungal activity against fluconazole-resistant Candida auris 383 assessed as reduction in fungal growth incubated for 24 hrs by CLSI based broth microdilution method; assay type: functional; conditions: Candidozyma auris
[7] = Cytotoxicity against African green monkey Vero cells assessed as reduction in cell viability incubated for 2 hrs by MTS assay; assay type: cell-based; conditions: chlorocebus sabaeus
[8] = test system: Cryptococcus gattii species complex; assay: Antifungal activity against Cryptococcus gattii NR43210 assessed as reduction in fungal growth incubated for 48 hrs by CLSI based broth microdilution method; assay type: functional, Cryptococcus bacillisporus
Nakaseomyces glabratus = assay: Antifungal activity against Candida glabrata ATCC 66032 assessed as reduction in fungal growth incubated for 24 hrs by CLSI based broth microdilution method; assay type: functional
[9] = Selectivity index, ratio of CC50 for African green monkey Vero cells to MIC for antifungal activity against Candida krusei ATCC 34135; assay type: toxicity; conditions: read-out: Selectivity Index
[10] = Selectivity index, ratio of CC50 for African green monkey Vero cells to MIC for antifungal activity against fluconazole-resistant Candida auris 383; assay type: toxicity; conditions: read-out: Selectivity Index
Candida albicans [11] = assay: Antibiofilm activity against 24 hrs preformed biofilm of Candida albicans NR29448 assessed as disruption of mature biofilm at 64 ug/ml incubated for 24 hrs by crystal violet staining based spectrophotometry relative to control; assay type: functional; conditions: dose 64 µg/ml
Candida albicans [12] = assay: Antifungal activity against Candida albicans SS5314 assessed as reduction in fungal growth incubated for 24 hrs by CLSI based broth microdilution method; assay type: functional
[13] = Selectivity index, ratio of maximum non-toxic concentration for human Caco-2 cells to MIC for antifungal activity against Cryptococcus neoformans NR48770; assay type: toxicity; conditions: read-out: Selectivity Index
[14] = Selectivity index, ratio of maximum non-toxic concentration for human Caco-2 cells to MIC for antifungal activity against Cryptococcus neoformans NR41298; assay type: toxicity; conditions: read-out: Selectivity Index
Candida albicans [15] = assay: Fungistatic activity against Candida albicans SS5314 at 5 to 10x MIC measured for 36 hrs by time kill assay; assay type: functional, organism-based

Structure (SMILES): Cc1nc(-c2ccc(C(C)(C)C)cc2)sc1-c1nnc(N[C@@H]2CCCC[C@@H]2N)o1 (relative stereo)
- MIC (Cryptococcus neoformans): 2 µg/mL (≈ 4.86 µM)
- Activity (Candida albicans [1]): Active
- selectivity ratio [2]: ≤ 64
- MIC ([Candida] auris [3]): 4 µg/mL (≈ 9.72 µM)
- selectivity ratio [4]: ≤ 64
- MIC ([Candida] auris [5]): 4 µg/mL (≈ 9.72 µM)
- MIC ([Candida] auris [6]): 2 µg/mL (≈ 4.86 µM)
- CC50 at 2 h [7]: > 64 µg/mL
- MIC [8]: 1 µg/mL (≈ 2.43 µM)
- MIC (Nakaseomyces glabratus): 0.5 µg/mL (≈ 1.21 µM)
- selectivity ratio [9]: ≤ 64
- selectivity ratio [10]: ≤ 64
- Activity (Candida albicans [11]): 16%
- MIC (Candida albicans [12]): 2 µg/mL (≈ 4.86 µM)
- selectivity ratio [13]: ≤ 64
- selectivity ratio [14]: ≤ 64
- Activity (Candida albicans [15]): Active
